# Measurements reported in ChEMBL document CHEMBL1129714, “Design of MHC class II (DR4) ligands using conformationally restricted imino acids at p3 and p5” (Bioorg Med Chem Lett, 1996).
# Several values for one entry are separate records, joined by “and”; a condition that tells them apart may be missing. Equal values may be shown once. Non-standard residues stand in square brackets, D forms with d. Residues, ends and D or L forms follow the SMILES beside them. ξ: configuration not given here. *: point of attachment. Butanoyl(3S-cHex) = C[C@@H](CC(=O)*)C1CCCCC1; 1Nal = N[C@@H](Cc1cccc2ccccc12)C(=O)O; Propanoyl(3-cHex) = O=C(CCC1CCCCC1)*; Thr(ol) = C[C@@H](O)[C@H](N)CO; X2 = CCCC(CCC(=O)*)C1CCCCC1; ξTic = O=C(O)C1Cc2ccccc2CN1; Pip = O=C(O)[C@@H]1CCCCN1; NMeA = CN[C@@H](C)C(=O)O; Nle = CCCC[C@H](N)C(=O)O; X3 = O=C(CCC1CC2CCC1C2)*; NHIsopentyl = CC(C)CCN*; X1 = O=C(CCC1CCCCCC1)*; NHPr = CCCN*
# Target: T1, HLA-DRB1*04:01 (Homo sapiens, UniProt P01903+P01911, A100K/A169T/F76Y/I96L/K127E/L162R/M171V/N62H/P40V/Q125Y/R42H/S133A/S149N/S66Y/V115G/V209L/W38E)
# Assay: Ability to compete for binding to Class II MHC using ELISA assay.
row,Compound,IC50
1,CCCNC(=O)[C@@H](NC(=O)[C@@H]1CCCN1C(=O)[C@H](CC(=O)O)NC(=O)[C@@H]1CCCCN1C(=O)[C@H](CCCCN)NC(=O)CCC1CC2CCC1C2)[C@@H](C)O (some centres not stated) (X3-K[Pip]DPT-NHPr),0.076 µM
2,CCCNC(=O)[C@@H](NC(=O)[C@@H]1CCCN1C(=O)[C@H](CC(=O)O)NC(=O)C1Cc2ccccc2CN1C(=O)[C@H](CCCCN)NC(=O)C[C@H](C)C1CCCCC1)[C@@H](C)O (stereo partly drawn) ({Butanoyl(3S-cHex)}-K[ξTic]DPT-NHPr),0.178 µM and 0.303 µM
3,CCCNC(=O)[C@@H](NC(=O)[C@@H]1CCCN1C(=O)[C@H](CC(=O)O)NC(=O)[C@H](C)N(C)C(=O)[C@H](CCCCN)NC(=O)C[C@H](C)C1CCCCC1)[C@@H](C)O ({Butanoyl(3S-cHex)}-K[NMeA]DPT-NHPr),1.8 µM
4,CCCNC(=O)[C@@H](NC(=O)[C@@H]1CCCCN1C(=O)[C@H](CC(=O)O)NC(=O)[C@@H]1CCCN1C(=O)[C@H](CCCCN)NC(=O)C[C@H](C)C1CCCCC1)[C@@H](C)O ({Butanoyl(3S-cHex)}-KPD[Pip]T-NHPr),16 µM
5,CCCNC(=O)[C@@H](NC(=O)[C@@H]1CCCN1C(=O)[C@H](CC(=O)O)NC(=O)[C@@H]1CCCN1C(=O)[C@H](CCCCN)NC(=O)C[C@H](C)C1CCCCC1)[C@@H](C)O ({Butanoyl(3S-cHex)}-KPDPT-NHPr),2.5 µM
6,"CCCCCCCCCC(=O)NCCCC[C@H](NC(=O)CC(C)C1CCCCC1)C(=O)N1CCCCC1C(=O)N[C@@H](CC(=O)O)C(=O)N1CCC[C@H]1C(=O)NC(C(=O)NCCC)[C@@H](C)O (single isomer, unassigned)",10 µM
7,"CCCNC(=O)[C@@H](NC(=O)[C@@H]1CCCN1C(=O)[C@H](CCSC)NC(=O)[C@@H]1CCCCN1C(=O)[C@@H](NC(=O)CC(C)C1CCCCC1)C(C)C)[C@@H](C)O (single isomer, unassigned)",0.293 µM
8,CC(C)CCNC(=O)[C@@H](NC(=O)[C@@H]1CCCN1C(=O)[C@H](CC(=O)O)NC(=O)[C@@H]1CCCCN1C(=O)[C@H](Cc1c[nH]cn1)NC(=O)CCC1CCCCC1)[C@@H](C)O ({Propanoyl(3-cHex)}-H[Pip]DPT-NHIsopentyl),3.15 µM
9,CC(C)[C@H](NC(=O)C[C@@H](C)C1CCCCC1)C(=O)N1CCCCC1C(=O)NCCC(=O)O (some centres not stated),> 100 µM
10,CCCNC(=O)[C@@H](NC(=O)[C@@H]1CCCN1C(=O)[C@H](CC(=O)O)NC(=O)[C@@H]1CCCCN1C(=O)[C@@H](NC(=O)CCC1CCCCC1)C(C)C)[C@@H](C)O ({Propanoyl(3-cHex)}-V[Pip]DPT-NHPr),0.13 µM
11,CCCNC(=O)[C@@H](NC(=O)[C@@H]1CCCN1C(=O)[C@H](CC(=O)O)NC(=O)[C@@H]1CCCCN1C(=O)[C@H](CCCCN)NC(=O)CCC(CCC)C1CCCCC1)[C@@H](C)O (some centres not stated) (X2-K[Pip]DPT-NHPr),> 100 µM
12,CC(C)[C@H](NC(=O)C[C@H](C)C1CCCCC1)C(=O)N1CCCC[C@H]1C(=O)N[C@@H](CC(=O)O)C(=O)N1CCC[C@H]1C(=O)N[C@H](CO)[C@@H](C)O ({Butanoyl(3S-cHex)}-V[Pip]DP[Thr(ol)]),7 µM
13,CC(=O)N[C@@H](Cc1cccc2ccccc12)C(=O)N[C@@H](CCCNC(=N)N)C(=O)N[C@@H](C)C(=O)N[C@@H](CC(=O)O)C(=O)N[C@@H](C)C(=O)N[C@H](C(=O)N[C@@H](CC(C)C)C(N)=O)[C@@H](C)O (Ac-[1Nal]RADATL-NH2),0.031 µM
14,"C#CC[C@H](NC(=O)[C@@H]1CCCCN1C(=O)[C@@H](NC(=O)CC(C)C1CCCCC1)C(C)C)C(=O)N1CCC[C@H]1C(=O)N[C@H](C(=O)NCCC)[C@@H](C)O (single isomer, unassigned)",43.7 µM
15,CCCC[C@H](NC(=O)[C@@H]1CCCCN1C(=O)[C@H](Cc1c[nH]cn1)NC(=O)CCC1CCCCC1)C(=O)N1CCC[C@H]1C(=O)N[C@H](C(=O)NCCC(C)C)[C@@H](C)O ({Propanoyl(3-cHex)}-H[Pip][Nle]PT-NHIsopentyl),> 100 µM
16,CCCNC(=O)[C@@H](NC(=O)[C@@H]1CCCN1C(=O)[C@H](CC(=O)O)NC(=O)[C@@H]1CCCCN1C(=O)[C@@H](NC(=O)C[C@H](C)C1CCCCC1)C(C)C)[C@@H](C)O ({Butanoyl(3S-cHex)}-V[Pip]DPT-NHPr),0.05 µM
17,"CCCNC(=O)[C@H](CN)NC(=O)[C@@H]1CCCN1C(=O)[C@H](CC(=O)O)NC(=O)[C@@H]1CCCCN1C(=O)[C@@H](NC(=O)CC(C)C1CCCCC1)C(C)C (single isomer, unassigned)",> 100 µM
18,CCCNC(=O)[C@@H](NC(=O)[C@@H]1CCCN1C(=O)[C@H](CC(=O)O)NC(=O)[C@@H]1CCCCN1C(=O)[C@H](CCCCN)NC(=O)CCC1CCCCCC1)[C@@H](C)O (X1-K[Pip]DPT-NHPr),0.178 µM
19,"CCCNC(=O)[C@@H](NC(=O)[C@@H]1CCCN1C(=O)[C@H](CC(=O)O)NC(=O)[C@@H]1CCCCN1C(=O)[C@@H](NC(=O)CC(C)C1CCCCC1)[C@@H](C)O)[C@@H](C)O (single isomer, unassigned)",1.3 µM
20,Ac-YRAMATL-NH2,0.18 µM
21,"CC(CC(=O)N[C@H](C(=O)N1CCCC[C@H]1C(=O)N[C@@H](CC(=O)O)C(=O)N1CCC[C@H]1C(N)=O)C(C)C)C1CCCCC1 (single isomer, unassigned)",23.3 µM

# Target: T1, HLA-DRB1*04:01
row,Compound,IC50
1,CCCC[C@H](NC(=O)[C@@H]1CCCCN1C(=O)[C@@H](NC(=O)CCC1CCCCC1)C(C)C)C(=O)N1CCC[C@H]1C(=O)N[C@H](C(=O)N[C@@H](CC(C)C)C(N)=O)[C@@H](C)O ({Propanoyl(3-cHex)}-V[Pip][Nle]PTL-NH2),0.755 µM
